The text below walks through data of article PMC2654097, “Orally Available Selective Melanocortin-4 Receptor Antagonists Stimulate Food Intake and Reduce Cancer-Induced Cachexia in Mice” (PLoS ONE, 2009).

In data set [1] the test system is animals implanted with Lewis lung carcinoma. The conditions noted are these: subcutaneous administration; cited from earlier work.
Data set [2] relates to animals implanted with a colorectal tumor. Further details: method as in PMID 15027849. Particulars: subcutaneous administration; cited from earlier work.
Data set [3] is described as follows: Brain and plasma concentrations in vivo. Particulars: 60 mg/kg p.o., CD-1 mice; for Brain AUC / Plasma AUC: 0-6 hr; for Brain/plasma ratio: calculated from AUC. On the procedure: Twelve weeks old male CD-1 (Hilltop Lab Animals, PA, USA) mice were dosed by gavage with either SNT207707 or SNT207858 at 60 mg/kg (n = 9 per compound). At 1, 3, and 6 hrs post-dose, 3 mice from each compound group were euthanized with CO2. Blood was collected by cardiac puncture, plasma was isolated immediately and then kept on dry ice until analysis. Brains were removed, rinsed with saline solution and stored at −80°C until analysis. Levels of the compound were determined by HPLC followed by mass spectrometry (MS/MS). Areas under the curve (AUC) of plasma and brain levels were computed from measured levels at 1, 3 and 6 hrs post-dose. Brain/plasma ratios were then calculated based on the AUCs. To assess the integrity of the blood-brain-barrier all animals were co-dosed with 10 mg/kg Atenolol.

For data set [4], the target named is MC-4 receptor. Also noted: method as in earlier work. The conditions noted are these: function; cited from earlier work.
The test system of the next data set is MC-5. Further details: method as in earlier work. Particulars: MC-4 vs. MC-5; cited from earlier work.
For data set [5], the target named is MC-4 receptor. Also noted: method as in earlier work. Particulars: binding; read-out: IC50 (binding) / affinity on the MC-4 receptor; cited from earlier work.
The test system of a further data set is C26 tumor bearing mice. The data set can be described thus: C26 adenocarcinoma-induced cachexia model. The data set is classed as in vivo, BALB/c mice. The conditions noted are these: for tumor induced weight loss: 30 mg/kg p.o. once daily starting the day after tumor implantation; for body composition (lean body mass and fat mass) / tumor weight / mice that did not show cachexia (loss of more than 5% of body weight): 30 mg/kg p.o. once daily; for body composition (lean body mass and fat mass): day 0 vs day 15, MRI relaxometry; for tumor weight: end of experiment, mean±SEM, not different from Vehicle+Tumor controls; for mice that did not show cachexia (loss of more than 5% of body weight): n = 9, Vehicle+Tumor controls 2 of 9 and 3 of 9. On the procedure: Six week old male BALB/c mice (Harlan, The Netherlands) were used. The animals were single housed, and after a one week adaption period randomly assigned to the experimental or control groups. For the tumor implantation the mice were anaesthetized with 200 µl of ketamine/xylazine. Approximately 1×10^6 C26 cells suspended in phosphate buffered saline were then implanted unilaterally in the flank of the mice by subcutaneous injection. The non-tumor controls underwent the same procedure but received PBS injection only (n = 9 per group). Starting on the first day after tumor implantation, compounds or vehicle were administered orally in 5 ml/kg 1–2 hrs before the onset of the dark phase. Food intake and body weight were recorded daily. Lean and fat mass of each animal were determined by MRI relaxometry (EchoMRI-500, Echo Medical Systems, Houston, TX, USA) prior to tumor inoculation (day 0) and at the end of the experiment after removal of the tumor (typically day 15).

The subject of another data set is healthy mice. The data set can be described thus: Light phase food intake. The data set is classed as in vivo, NMRI mice. The conditions noted are these: for effect on food intake, single dose comparison / effect on food intake: 4 hrs; for effect on food intake, single dose comparison: p<0.01 vs vehicle; for amount of food taken relative to vehicle control group: p.o., four hour post-treatment observation period; for effect on food intake: single oral treatment by gavage, dose range; for effect on food intake / amount of food taken relative to vehicle treated controls: light phase; for amount of food taken relative to vehicle treated controls: single s.c. injection 20 mg/kg, 4 hrs observation, p<0.01. On the procedure: Six weeks old female NMRI mice (RCC Ltd.; Füllinsdorf, CH) were randomly assigned to the various experimental groups and the vehicle controls. They were housed in groups of 3 mice per cage. After at least one week of acclimatization in the experimental room, each animal's weight was determined and compound or vehicle was administered at appropriate concentrations 5 hrs after lights on. Then, food consumption of each cage group was recorded by weighing of the food hopper over a period of 4 hrs. Food intake was then determined as the difference in food hopper weight at the beginning and end of the 4 hrs following administration of the compound or the vehicle. Since the amount of food taken over 4 hrs by single animals was close to the limit of detection, we decided to rely on mean food amounts taken per cage (i.e., per 3 mice), whereby each treatment group consisted of n = 6 cages. The measured values from each cage were normalized to 100 g body weight (BW). Previous experiments indicated an excellent correlation between food intake and reduction of food weight.

The subject of a further data set is MC-3. Also noted: method as in earlier work. Particulars: MC-4 vs. MC-3; cited from earlier work.
Data set [6] concerns models of cancer-induced anorexia. Also noted: method as in PMID 17584133, PMID 15800806. Particulars: central administration; cited from earlier work.

Read-outs that look alike come from different tables or passages of the source. Ends that are not written are not given here.

With `COc1ccc(Br)cc1CCc1c(F)cccc1C1=NCCN1` [ML00253764, 2-[2-[2-(5-bromo-2-methoxyphenyl)-ethyl]-3-fluorophenyl]-4,5-dihydro-1H-imidazole], the cachexia entry in [1] and in data set [2] was “efficacious in reducing cachexia” each time.
With `CC[C@H](COc1cccnc1C1CCN(C(=O)[C@@H](Cc2ccc(Cl)cc2Cl)NC(=O)N2CCCC2)CC1)N1CCCC1` [SNT207858], in [3], the “Brain AUC” value was 0.437 µM·h, the “Plasma AUC” value turned out to be 4.405 µM·h and the Brain/plasma ratio is reported as 0.10. The compound further returned a Plasma peak in data set [3] (levels at 1, 3, 6 hrs) of 1520 nM. In addition, the IC50 on MC-4 receptor [4] was 11 nM. The “selectivity vs. MC-5” value in the data set on MC-5 is listed as 40 fold. Besides, on MC-4 receptor [5], the IC50 is 22 nM. Further, in the data set with C26 tumor bearing mice, the “tumor induced weight loss” value was “significantly reduced the tumor induced weight loss”; the “body composition (lean body mass and fat mass)” value is “loss of lean body mass and loss of fat mass was reduced”; the tumor weight came to 1.11 ± 0.09 g; the “mice that did not show cachexia (loss of more than 5% of body weight)” value is on record as 6 out of 9. Moreover, the “effect on food intake, single dose comparison” value (“effect … single dose comparison” below) with healthy mice (p.o. 60 mg/kg) was “statistically significant increases in food intake”. In addition, the “effect … single dose comparison” value with healthy mice (p.o. 120 mg/kg) is “statistically significant increases in food intake”. For the same compound, in the data set with healthy mice, the “amount of food taken relative to vehicle control group” value is “roughly up to four times”, the “effect on food intake” value was “dose-dependently increased the food intake” and the “amount of food taken relative to vehicle treated controls” value was “roughly 3 fold”. For the same compound, in the data set with MC-3, the “selectivity vs. MC-3” value is 170 fold.
For `CC(C)CCN(CCC(C)C)C(=O)c1ccc2nc(-c3ccc(C#N)cc3)c(CCCN3CCCC3)n2c1.Cl` [SNT207707], in data set [3], the “Brain AUC” value was 2.307 µM·h, the “Plasma AUC” value came to 6.373 µM·h and the Brain/plasma ratio is given as 0.36. For the same compound, in data set [3] (levels at 1, 3, 6 hrs), the Brain peak was about 580 nM and the Plasma peak was found to be 1960 nM. Also, at MC-4 receptor [4], the IC50 is 5 nM. The “selectivity vs. MC-5” value with MC-5 is reported as “more than 200 fold”. In addition, on MC-4 receptor [5], the IC50 is 8 nM. Also, in the data set with C26 tumor bearing mice, the “tumor induced weight loss” value is recorded as “significantly reduced the tumor induced weight loss”; the “body composition (lean body mass and fat mass)” value is “loss of lean body mass and loss of fat mass was reduced”; the tumor weight is 1.03 ± 0.07 g; the “mice that did not show cachexia (loss of more than 5% of body weight)” value is reported as 8 out of 9. In addition, the “effect … single dose comparison” value with healthy mice (p.o. 120 mg/kg) is “statistically significant increases in food intake”. For the same compound, in the data set on healthy mice, the “amount of food taken relative to vehicle control group” value is reported as “roughly up to four times”, the “effect on food intake” value is on record as “dose-dependently increased the food intake” and the “amount of food taken relative to vehicle treated controls” value is “roughly 3 fold”. In addition, in the data set with MC-3, the “selectivity vs. MC-3” value is given as “more than 200 fold”.
Consider SHU-9119 [reference compound], for which the food intake result in data set [6] was “increased food intake”.
Turning to “AgRP: agouti-related protein, the endogenous inverse agonist at the MC-4 receptor (SSRRCVRLHESCLGQQVPCCDPCATCYCRFFNAFCYCRKLGTAMNPCSRT; ends and bridges not checked; cysteine pairing not given here; UniProt O00253 83-132, looked up)”, the food intake result in [6] is “increased food intake”.
